pKd: −log10 of the molar value. “Also recorded” adds a separate entry of the source.
Tests used:
[1] = target: T1, BID (Mus musculus, UniProt P70444); assay: NMR binding to BID (HSQC/TROSY chemical shifts)
T1 construct: poly-His (N); made in house; host or cells: E. coli BL21
T1 sequence (P70444 1-195): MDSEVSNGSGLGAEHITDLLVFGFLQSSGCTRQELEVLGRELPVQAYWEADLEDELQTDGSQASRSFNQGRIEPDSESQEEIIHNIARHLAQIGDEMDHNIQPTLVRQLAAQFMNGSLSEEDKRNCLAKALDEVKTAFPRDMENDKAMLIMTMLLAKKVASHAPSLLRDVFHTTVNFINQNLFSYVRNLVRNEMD
Experimental: (§1) Recombinant full length mouse BID was produced from a pET-19b (Novagen) plasmid construct containing the entire nucleotide sequence for BID fused to an N-terminal poly-His tag. Unlabeled BID was expressed in E. coli BL21 in LB media at 37° C., with an induction period of 3-4 hours with 1 mM IPTG. ^15N-labeled BID was similarly produced, with growth occurring in M9 media supplemented with 0.5 g/L ^15NH4Cl. ε-^13C-Met labeled BID was produced in M9 media supplemented with 50 mg/L of ε-^13C-Met at time of induction with IPTG. Following cell lysis, soluble BID was purified over a Hi-Trap chelating column (Amersham, Pharmacia), followed by ion-exchange purification with a MonoQ (Amersham, Pharmacia) column. Final BID samples were dialyzed into a buffer appropriate for the subsequent experiments. tBID was produced by cleavage of purified BID with caspase-8, as known in the art.
For all NMR experiments, BID was exchanged into 50 mM phosphate buffer at pH 7.5 and measurements were performed at 30° C. 2D [^15N,^1H]-TROSY spectra for BID were measured with 0.5 mM samples of ^15N-labeled BID. 2D [^13C,^1H]-HSQC spectra were measured with 0.2 mM samples of ε-^13C-Met labeled BID. 2D [^1H,^1H]-NOESY spectra were acquired with small molecules at a concentration of 0.9 mM in the presence of 10 μM BID. T1ρ competition experiments (200 msec spin-lock duration) were performed on either 100 μM BI-2A7 or a mixture of 100 μM BI-2A7 and 10 μM BI-6C9, in the presence and absence of 10 μM BID. All experiments were performed with either a 500 MHz or 600 MHz Bruker Avance spectrometer, both equipped with TXI probes. Typical parameters for the 2D [^15N,^1H]-TROSY spectra included ^1H and ^15N π/2 pulse lengths of 11 μsec and 40 μsec, respectively; ^1H and ^15N sweep widths of 12 ppm and 32 ppm, respectively; 16 scans and 256 indirect acquisition points and a recycle delay of 1 sec. For the 2D [^13C,^1H]-HSQC typical parameters included ^1H and ^13C π/2 pulse lengths of 10 μsec and 13 μsec, respectively; ^1H and ^13C sweep widths of 12 ppm and 5 ppm, respectively; 128 scans and 80 indirect acquisition points and a recycle delay of 1 sec. […]
To examine the binding affinity of some compounds of the invention to BID, 2D [^13C,^1H]-HSQC spectra in presence of ^13C methionine-labeled protein were measured, as at least one methionine is present in the hydrophobic groove of BID (FIG. 4B). […]
Monitoring the variation of cross-peak intensity upon addition of increasing amounts of compound II, allowed to estimate its dissociation constant KD. The arrow on FIG. 5C indicates the peak that was monitored to determine the Kd for compound II. […]

[2] = target: BCL-XL (Homo sapiens, UniProt Q07817); assay: NMR-binding assay against BCL-XL
[3] = tested on: rat embryonic cortical neurons; assay: Nuclear translocation of AIF in neurons exposed to glutamate; type: cell-based; details: glutamate 20 μM, 8 h
Experimental: Neuronal cell death was quantified after staining the nuclei with the DNA-binding fluorochrome Hoechst 33258 (Molecular Probes) or by the MTT assay. Immunocytochemistry was performed as described in the art, with a polyclonal anti-AIF antibody (sc-9416, Santa Cruz; 1:200) followed by incubation a biotinylated anti-goat IgG antibody (1:200) Vector Laboratories) and Oregon Green-streptavidin (Molecular Probes). After counterstaining with Hoechst 33342 images were acquired using a confocal laser scanning microscope (Axiovert, Zeiss) with a 60× oil immersion objective (514-nm excitation and 535-nm emission for detection of Oregon Green and 352-nm excitation and 460-nm emission for detection of Hoechst 33342).
Pretreatment with Compound I preserves nuclear morphology (blue fluorescence, Hoechst 33342) and prevents AIF translocation. […] Mean values and SD of 4 dishes per group are presented.

[4] = target: T2, tBID (Mus musculus, UniProt P70444); assay: NMR chemical shift mapping with tBID (BID cleaved with caspase-8); type: binding; details: 15N-BID after cleavage with caspase-8
T2 construct: tBID was produced by cleavage of purified BID with caspase-8, as known in the art; made in house; host or cells: E. coli BL21 (BID), then cleaved in vitro with caspase-8
T2 sequence (P70444 60-195 limits assumed): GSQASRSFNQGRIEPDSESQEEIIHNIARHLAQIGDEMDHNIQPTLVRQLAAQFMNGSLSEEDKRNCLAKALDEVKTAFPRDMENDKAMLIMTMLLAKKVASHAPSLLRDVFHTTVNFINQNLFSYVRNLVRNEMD
T2 sequence (P70444 1-59 partner limits assumed): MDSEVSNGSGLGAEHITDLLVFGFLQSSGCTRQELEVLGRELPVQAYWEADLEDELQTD
Experimental: as §1
For all NMR experiments, BID was exchanged into 50 mM phosphate buffer at pH 7.5 and measurements were performed at 30° C. 2D [^15N,^1H]-TROSY spectra for BID were measured with 0.5 mM samples of ^15N-labeled BID. 2D [^13C,^1H]-HSQC spectra were measured with 0.2 mM samples of ε-^13C-Met labeled BID. 2D [^1H,^1H]-NOESY spectra were acquired with small molecules at a concentration of 0.9 mM in the presence of 10 μM BID. […]

Sequence of BCL-XL (Q07817 whole entry, species assumed): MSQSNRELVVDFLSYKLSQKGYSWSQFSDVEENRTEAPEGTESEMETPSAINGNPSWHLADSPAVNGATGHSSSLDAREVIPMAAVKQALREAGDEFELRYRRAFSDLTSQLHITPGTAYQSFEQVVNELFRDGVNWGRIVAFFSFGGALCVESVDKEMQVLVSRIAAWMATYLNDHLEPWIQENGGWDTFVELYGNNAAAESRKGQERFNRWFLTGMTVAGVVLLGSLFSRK

Compound | specific binding to BID, affinity range ([1]; 2D [15N-1H]-TROSY chemical shift perturbations) | binding to BID ([1]; NMR) | binding to BCL-XL [2] | nuclear translocation of AIF [3] | binding to tBID compared with full-length BID [4] | pKd ([1]; 2D [13C,1H]-HSQC, 13C methionine-labeled BID, cross-peak intensity upon titration, read-out: dissociation constant KD)
Nc1ccc(Sc2ccc(NC(=O)CNC(=O)c3ccc(O)cc3O)cc2)cc1 [Compound I, N-((4-(4-aminophenylthio)phenylcarbamoyl)methyl)-2,4-dihydroxybenzamide] | low micromolar range | strong binder | did not show appreciable binding | prevented | higher affinity | 
COc1ccc(S(=O)(=O)NCCCC(=O)Nc2ccc(Sc3ccc(N)cc3)cc2)cc1 [Compound II, N-[4-(4-amino-phenylsulfanyl)-phenyl]-4-(4-methoxy-benzenesulfonylamino)-butyramide] |  |  | does not bind appreciably; also recorded: did not show appreciable binding |  | binding even better | ~4.70

Source: patent US7741521B2, “Inhibition of bid-induced cell-death using small organic molecules” (The Burnham Institute, priority 2004, dated 2010)
